Patent US12011422B2, “Synthetic antibacterial compounds and uses thereof” (priority 2021, dated 2024)
In brackets after ≈: the same amount, converted by molar mass.

What was measured:
[1] = test system: a strain of S. aureus; assay: MIC determination (CLSI broth microdilution) against S. aureus; format: cell-based, Staphylococcus aureus; settings: 37° C., lowest concentration showing <10% bacterial growth; for MIC: Staphylococcus aureus, 18 h, read-out: Staph MIC; for Staph MIC: 18 hours
Description: (§1) The protocol for MIC determination is based on the Clinical & Laboratory Standards Institute (CLSI) guidelines. MICs are determined by setting up 96-well microtiter plates with serially diluted concentrations in DMSO or water ranging from 0-256 μg/mL for each compound of the invention (e.g., 256 μg/mL, 128 μg/mL, 64 μg/mL, 32 μg/mL, 16 μg/mL, 8 μg/mL, 4 μg/mL, 2 μg/mL, 1 μg/mL, etc.). The total volume in each plate is about 200 μL, with 2 μL of each serial dilution added to each well. Clinical isolates of various bacteria are obtained from the American Type Culture Collection (ATCC) and colony-resuspended for MIC testing as per CLSI guidelines. Plates are incubated at 37° C. for 18 hours, and optical density is read on a Tecan M1000 Infinite Pro plate reader at 600 nm. At least 3 replicates are done for each query compound. The MIC for each compound is the lowest compound concentration showing <10% bacterial growth.
(§2) The protocol as described in Example 2 was used to determine the minimal inhibitory concentration (MIC) of each of the following compounds against a strain of S. aureus and Pore-TolC E. coli.

[2] = test system: Pore-TolC E. coli; assay: MIC determination (CLSI broth microdilution) against Pore-TolC E. coli; format: cell-based, Escherichia coli; settings: for MIC: Escherichia coli, 18 h, read-out: Pore-TolC E. coli MIC, Pore-TolC E. coli, 37° C., lowest concentration showing <10% bacterial growth; for Pore-TolC E. coli MIC: 37° C., 18 hours, lowest concentration showing <10% bacterial growth
Description: as §1, §2

[3] = test system: E. coli; assay: Checkerboard broth microdilution (FICI) in combination with Colistin against E. coli; format: cell-based, Escherichia coli; settings: combined with Colistin (0-0.5 μg/mL) against E. coli; compound 0-32 μg/mL; FICI <= 0.5 is synergy
Text: In some embodiments, a compound of the invention and another antibacterial agent are synergistic. In some embodiments, a fractional inhibitory concentration (FIC) index calculation (shown below) is used to show synergy of a compound of the invention and another antibacterial agent.
FICother antibacterial agent=[other antibacterial agent]/MICother antibacterial agent, where [other antibacterial agent] is the lowest inhibitory concentration of the other antibacterial agent in the presence of a compound of the invention.
The FIC index (FICI) is the sum of the FICcompound of the invention and FICother antibacterial agent. Drug-Drug interactions having an FICI of less than or equal to 0.5 are deemed synergistic. In some embodiments, a compound of the invention and another antibacterial agent have a FICI of about 0.5, about 0.4, about 0.3, about 0.2, about 0.1 or about 0. […]
The effect of another antibacterial agent on the activity of the compounds of the invention is evaluated. […] Fractional inhibitory concentration indices (FICIs) are determined by setting up standard checkerboard broth microdilution assays in 96-well microtiter plates with serially diluted 8 (or 10) concentrations of each drug (disclosed compounds and the other antibacterial agent). […] Plates are incubated at 37° C. for 18 hours, and optical density is read on a Tecan M1000 Infinite Pro plate reader at 600 nm. […]

SMILES | MIC [1] [µg/mL] | MIC [2] [µg/mL] | Pore-TolC E. coli MIC [2] [µg/mL] | Staph MIC [1] [µg/mL] | FICI [3]
CC(C)=CCC/C(C)=C/Cc1c(O)cc(-c2ccccc2Cl)cc1O [MLEB-19121] | 0.5 (≈ 1.4 µM) | – | – | – | –
CC(C)=CCC/C(C)=C/Cc1c(O)cc(-c2cnc3ccccc3c2)cc1O [MLEB-19109] | 32 (≈ 85.7 µM) | 32 (≈ 85.7 µM) | – | – | –
CC(=O)c1ccc(-c2cc(O)c(C/C=C(\C)CCC=C(C)C)c(O)c2)cc1 [MLEB-1996] | 32 (≈ 87.8 µM) | > 32 | – | – | –
CC(C)=CCC/C(C)=C/Cc1c(O)cc(-c2cccc(C=O)c2)cc1O [MLEB-19108] | 8 (≈ 22.8 µM) | – | – | – | –
CC(C)=CCC/C(C)=C/Cc1c(O)cc(-c2cc(C(F)(F)F)ccc2F)cc1O [MLEB-19102] | 2 (≈ 4.9 µM) | 2 (≈ 4.9 µM) | – | – | –
CC(C)=CCC/C(C)=C/Cc1c(O)cc(-c2ccc(C)cc2)cc1O [MLEB-1998] | 4 (≈ 11.9 µM) | 1 (≈ 2.97 µM) | – | – | –
CC(C)=CCC/C(C)=C/Cc1c(O)cc(-c2ccc(F)nc2)cc1O [MLEB-19130] | 2 (≈ 5.86 µM) | 2 (≈ 5.86 µM) | – | – | –
CC(C)=CCC/C(C)=C/Cc1c(O)cc(-c2cnc(Cl)nc2)cc1O [MLEB-19139] | 16 (≈ 44.6 µM) | 4 (≈ 11.1 µM) | – | – | –
CC(C)=CCC/C(C)=C/Cc1c(O)cc(-c2cccc(Cl)c2)cc1O [MLEB-19132] | 1 (≈ 2.8 µM) | 1 (≈ 2.8 µM) | – | – | –
CC(C)=CCC/C(C)=C/Cc1c(O)cc(-c2cccc(C(F)(F)F)c2)cc1O [MLEB-19101] | – | – | 1 | 2 | –
CC(C)=CCC/C(C)=C/Cc1c(O)cc(-c2ccc(C=O)cc2)cc1O [MLEB-19110] | 8 (≈ 22.8 µM) | – | – | – | –
CC(C)=CCC/C(C)=C/Cc1c(O)cccc1O [MLEB-1864] | 4 (≈ 16.2 µM) | 1 (≈ 4.06 µM) | – | – | –
COc1ccc(-c2cc(O)c(C/C=C(\C)CCC=C(C)C)c(O)c2)cn1 [MLEB-19138] | 16 (≈ 45.3 µM) | – | – | – | –
CC(C)=CCC/C(C)=C/Cc1c(O)cc(C)cc1O [MLEB-1850] | 8 (≈ 30.7 µM) | 2 (≈ 7.68 µM) | – | – | < 0.5
CC(C)=CCC/C(C)=C/Cc1c(O)cc(-c2ccc(C#N)cc2)cc1O [MLEB-19136] | 4 (≈ 11.5 µM) | 2 (≈ 5.76 µM) | – | – | –
CC(C)=CCC/C(C)=C/Cc1c(O)cc(-c2c(F)cccc2F)cc1O [MLEB-19114] | 1 (≈ 2.79 µM) | 0.5 (≈ 1.39 µM) | – | – | –
CC(C)=CCC/C(C)=C/Cc1c(O)cc(Br)cc1O [MLEB-1917] | 4 (≈ 12.3 µM) | – | 0.5 | – | < 0.375
CC(C)=CCC/C(C)=C/Cc1c(O)cc(-c2cncnc2)cc1O [MLEB-19129] | – | – | 8 | 16 | –
CC(C)=CCC/C(C)=C/Cc1c(O)cc(-c2ccc(C=O)cc2F)cc1O [MLEB-19131] | 2 (≈ 5.43 µM) | 2 (≈ 5.43 µM) | – | – | –
CC(C)=CCC/C(C)=C/Cc1c(O)cc(-c2cccc(O)c2)cc1O [MLEB-19115] | 4 (≈ 11.8 µM) | 2 (≈ 5.91 µM) | – | – | –

SMILES | MIC [1] [µg/mL] | MIC [2] [µg/mL] | Pore-TolC E. coli MIC [2] [µg/mL] | Staph MIC [1] [µg/mL] | FICI [3]
COc1ccc(-c2cc(O)c(C/C=C(\C)CCC=C(C)C)c(O)c2)cc1 [MLEB-19163] | 4 (≈ 11.3 µM) | 2 (≈ 5.67 µM) | – | – | –
CC(C)=CCC/C(C)=C/Cc1c(O)cc(-c2ccnc(Cl)c2)cc1O [MLEB-19135] | 4 (≈ 11.2 µM) | 1 (≈ 2.79 µM) | – | – | –
CC(C)=CCC/C(C)=C/Cc1c(O)cc(-c2c(C)noc2C)cc1O [MLEB-19120] | 2 (≈ 5.86 µM) | – | – | – | –
CC(C)=CCC/C(C)=C/Cc1c(O)cc(-c2cnc(N)cn2)cc1O [MLEB-19117] | 4 (≈ 11.8 µM) | – | – | – | –
CC(C)=CCC/C(C)=C/Cc1c(O)cc(Br)cc1O [MLEB-19116] | – | – | 4 | 8 | –
CC(C)=CCC/C(C)=C/Cc1c(O)cc(-c2ccc(C#N)s2)cc1O [MLEB-19162] | 2 (≈ 5.66 µM) | 4 (≈ 11.3 µM) | – | – | –
CC(C)=CCC/C(C)=C/Cc1c(O)cc(-c2cccc([N+](=O)[O-])c2)cc1O [MLEB-19134] | 1 (≈ 2.72 µM) | 1 (≈ 2.72 µM) | – | – | –
CC(C)=CCC/C(C)=C/Cc1c(O)cc(-c2ccc(Cl)cc2)cc1O [MLEB-19100] | 2 (≈ 5.6 µM) | 2 (≈ 5.6 µM) | – | – | –
CC(C)=CCC/C(C)=C/Cc1c(O)cc(-c2cc(C(F)(F)F)cc(C(F)(F)F)c2)cc1O [MLEB-19118] | 1 (≈ 2.18 µM) | 8 (≈ 17.5 µM) | – | – | –
CC(C)=CCC/C(C)=C/Cc1c(O)cc(-c2cnccc2Cl)cc1O [MLEB-19133] | 4 (≈ 11.2 µM) | 2 (≈ 5.59 µM) | – | – | –
CC(C)=CCC/C(C)=C/Cc1c(O)cc(-c2ccc(C(F)(F)F)cc2)cc1O [MLEB-1999] | 1 (≈ 2.56 µM) | 2 (≈ 5.12 µM) | – | – | –
CC(C)=CCC/C(C)=C/Cc1c(O)cc(-c2ccc(C=O)o2)cc1O [MLEB-19161] | 4 (≈ 11.8 µM) | 4 (≈ 11.8 µM) | – | – | –
CC(C)=CCC/C(C)=C/Cc1c(O)cc(-c2ccc([N+](=O)[O-])cc2)cc1O [MLEB-19165] | 2 (≈ 5.44 µM) | 1 (≈ 2.72 µM) | – | – | –
CC(C)=CCC/C(C)=C/Cc1c(O)cc(-c2cccc(C(F)(F)F)c2)cc1O [MLEB-19112] | 1 (≈ 2.56 µM) | 1 (≈ 2.56 µM) | – | – | –
CC(C)=CCC/C(C)=C/Cc1c(O)cc(-c2ccc(C=O)c(F)c2)cc1O [MLEB-19164] | 2 (≈ 5.43 µM) | 4 (≈ 10.9 µM) | – | – | –
CC(C)=CCC/C(C)=C/Cc1c(O)cc(-c2cncnc2)cc1O [MLAP-1913] | 8 (≈ 24.7 µM) | – | 2 | – | –
CC(C)=CCC/C(C)=C/Cc1c(O)cc(-c2ccncc2)cc1O [MLEB-19128] | 4 (≈ 12.4 µM) | 2 (≈ 6.18 µM) | – | – | –
CC(C)=CCC/C(C)=C/Cc1c(O)cc(-c2cccnc2Cl)cc1O [MLEB-19137] | 1 (≈ 2.79 µM) | 1 (≈ 2.79 µM) | – | – | –
CC(C)=CCC/C(C)=C/Cc1c(O)cc(-c2cccc(C)c2C)cc1O [MLEB-1997] | 2 (≈ 5.71 µM) | 1 (≈ 2.85 µM) | – | – | –
